Source: US20230172961A1 (priority 2020, published 2023)

Key:
[1] = molecular target: T1, SARS-CoV-2 RdRp (nsp12, nsp7 and nsp8) (Severe acute respiratory syndrome coronavirus 2, UniProt P0DTD1); conditions: kinetic studies of Gordon et al 2020a, b; RDV-TP with MERS-CoV and SARS-CoV-2 RdRps; cited from earlier work
[2] = molecular target: SARS-CoV RdRp (nsp12, nsp7 and nsp8) (Severe acute respiratory syndrome coronavirus, UniProt P0C6X7); assay type: biochemical
Therminator IX = conditions: 10 µM nucleotide, DNA template and primer, MALDI-TOF MS
Thermo Sequenase = experiment: DNA polymerase extension reaction, MALDI-TOF MS, high fidelity polymerase; conditions: 10 µM nucleotide, DNA template and primer
Therminator II = Therminator II (Thermococcus sp., UniProt Q56366, A485L/D141A/E143A/Y409V); conditions: 10 µM nucleotide, DNA template and primer, MALDI-TOF MS
Chain of Therminator II (Q56366 whole entry D141A/E143A/Y409V/A485L): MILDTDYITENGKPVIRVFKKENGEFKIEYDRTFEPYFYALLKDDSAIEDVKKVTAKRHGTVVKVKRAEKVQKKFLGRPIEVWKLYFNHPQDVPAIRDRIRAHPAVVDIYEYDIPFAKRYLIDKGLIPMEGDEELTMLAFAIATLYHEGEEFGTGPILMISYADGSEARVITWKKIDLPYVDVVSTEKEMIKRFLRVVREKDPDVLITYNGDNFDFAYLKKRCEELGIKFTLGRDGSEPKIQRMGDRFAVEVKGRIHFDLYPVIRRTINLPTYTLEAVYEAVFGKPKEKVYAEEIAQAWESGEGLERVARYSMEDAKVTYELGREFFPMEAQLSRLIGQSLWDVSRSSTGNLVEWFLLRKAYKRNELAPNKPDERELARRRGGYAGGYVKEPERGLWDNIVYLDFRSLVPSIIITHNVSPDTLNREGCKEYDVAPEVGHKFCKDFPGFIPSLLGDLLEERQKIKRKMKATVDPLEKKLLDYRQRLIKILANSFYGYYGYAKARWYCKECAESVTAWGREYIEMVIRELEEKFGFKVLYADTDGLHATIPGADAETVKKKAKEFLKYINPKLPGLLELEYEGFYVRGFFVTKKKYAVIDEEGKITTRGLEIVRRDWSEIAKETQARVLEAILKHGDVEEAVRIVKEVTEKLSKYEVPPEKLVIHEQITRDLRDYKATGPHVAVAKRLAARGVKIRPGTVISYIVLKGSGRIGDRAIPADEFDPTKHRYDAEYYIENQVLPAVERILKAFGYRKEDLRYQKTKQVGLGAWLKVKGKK

[3] = molecular target: T1, SARS-CoV-2 RdRp (nsp12, nsp7 and nsp8); assay type: biochemical
SARS-CoV-2 = conditions: hamsters; cited from earlier work
[4] = test system: SARS-CoV-2 infection of human brain organoids; conditions: cited from earlier work
SARS-CoV-2 RdRp = SARS-CoV-2 RdRp (Severe acute respiratory syndrome coronavirus 2, UniProt P0DTD1); conditions: biochemical assays; cited from earlier work
[5] = test system: SARS-CoV-2 in Calu-3 lung cells; conditions: screen of 1200 drugs; cited from earlier work
[6] = molecular target: SARS-CoV-2 exonuclease complex (nsp14/nsp10) (Severe acute respiratory syndrome coronavirus 2, UniProt P0DTD1); experiment: Inhibition of SARS-CoV-2 exonuclease, MALDI-TOF MS; assay type: biochemical; conditions: 30 nM nsp14/nsp10, 37° C., 15 min
[7] = test system: SARS-CoV-2 in Vero and pulmonary epithelial cell culture; conditions: in the presence or absence of Ritonavir; cited from earlier work

## 2′-fluoro-2′-methyl-UTP [2′-F,Me-UTP]
[1]
  incorporation efficiency relative to the natural nucleotide: lower incorporation efficiency than the natural nucleotide
[2]
  termination of the polymerase reaction: permanent terminators
Therminator IX
  incorporation and block of further nucleotide incorporation: able to be incorporated and block further nucleotide incorporation
Thermo Sequenase
  incorporation and block of further nucleotide incorporation: no incorporation
Therminator II
  incorporation and block of further nucleotide incorporation: able to be incorporated and block further nucleotide incorporation
[3]
  incorporation efficiency: efficient substrates of the RdRp
  termination of the polymerase reaction: single nucleotide (2′-F,Me-UMP) primer extension product

## CNC(=C[N+](=O)[O-])NCCSCc1ccc(CN(C)C)o1.O=C([O-])CC(O)(CC(=O)[O-])C(=O)[O-].[Bi+3] [Ranitidine bismuth citrate]
SARS-CoV-2
  viral loads in the respiratory tract: decrease viral loads in the respiratory tract of hamsters

## CC(C)OC(=O)[C@H](C)N[P@](=O)(OC[C@H]1O[C@@H](n2ccc(=O)[nH]c2=O)[C@](C)(F)[C@@H]1O)Oc1ccccc1 [Sofosbuvir]
[4]
  protection from SARS-CoV-2 infection: protect human brain organoids from SARS-CoV-2 infection

## Cc1ccc(C(=O)Nc2ccc(S(=O)(=O)O)c3cc(S(=O)(=O)O)cc(S(=O)(=O)O)c23)cc1NC(=O)c1cccc(NC(=O)Nc2cccc(C(=O)Nc3cc(C(=O)Nc4ccc(S(=O)(=O)O)c5cc(S(=O)(=O)O)cc(S(=O)(=O)O)c45)ccc3C)c2)c1 [Suramin]
SARS-CoV-2 RdRp
  potency relative to Remdesivir: 20 ×

## COC[C@H]1C[C@@H](c2nc(-c3ccc4c(c3)COc3cc5c(ccc6nc([C@@H]7CC[C@H](C)N7C(=O)[C@@H](NC(=O)OC)C(C)C)[nH]c65)cc3-4)c[nH]2)N(C(=O)[C@H](NC(=O)OC)c2ccccc2)C1 [Velpatasvir]
[5]
  synergism with Remdesivir in inhibiting viral production: strongest effects
[6]; 50 µM inhibitor
  inhibition of exonuclease activity: shows inhibition of the exonuclease activity
[6]; 150 µM inhibitor
  inhibition of exonuclease activity: increased inhibition of exonuclease activity

## COC(=O)N[C@H](C(=O)N[C@@H](Cc1ccccc1)[C@@H](O)CN(Cc1ccc(-c2ccccn2)cc1)NC(=O)[C@@H](NC(=O)OC)C(C)(C)C)C(C)(C)C [atazanavir]
[7]
  inhibition of viral production: inhibits viral production

## Cc1cn([C@H]2C[C@H](O)[C@@H](COP(=O)(O)OP(=O)(O)OP(=O)(O)O)O2)c(=O)[nH]c1=O [dTTP]
Therminator IX
  incorporation and block of further nucleotide incorporation: incorporation continued past the first A in the template
Thermo Sequenase
  incorporation and block of further nucleotide incorporation: incorporation continued past the first A in the template
Therminator II
  incorporation and block of further nucleotide incorporation: incorporation continued past the first A in the template
